The values that follow come from ChEMBL document CHEMBL4130471, “Design and synthesis of tranylcypromine derivatives as novel LSD1/HDACs dual inhibitors for cancer treatment” (Eur J Med Chem, 2017).

As usually defined, the IC50 is the point on the concentration scale where inhibition reaches its midpoint.

For experiment [1], the system named is PC-3. Briefly: cells. Particulars: Homo sapiens, PC-3, 72 h; call rule not given here. It is filed as functional, cell-based.
Experiment [2] deals with SW-620. Kind of experiment: cells. It is filed as functional, cell-based. Particulars: Homo sapiens, SW-620, 72 h.
Description: Antiproliferative activity against human SW620 cells incubated for 72 hrs by MTT assay
Experiment [3] has as its system MCF7. Briefly: cells. The experiment is classed as functional, cell-based. Particulars: Homo sapiens, MCF7, 72 h.
Description: Antiproliferative activity against human MCF7 cells incubated for 72 hrs by MTT assay
The subject of experiment [4] is MGC-803. Kind of experiment: cells. The experiment is classed as functional, cell-based. The settings on record: Homo sapiens, MGC-803, 72 h.
Description: Antiproliferative activity against human MGC803 cells incubated for 72 hrs by MTT assay
Experiment [5] addresses T1, Amine oxidase [flavin-containing] B (Homo sapiens, UniProt P27338).
T1 sequence (P27338 whole entry): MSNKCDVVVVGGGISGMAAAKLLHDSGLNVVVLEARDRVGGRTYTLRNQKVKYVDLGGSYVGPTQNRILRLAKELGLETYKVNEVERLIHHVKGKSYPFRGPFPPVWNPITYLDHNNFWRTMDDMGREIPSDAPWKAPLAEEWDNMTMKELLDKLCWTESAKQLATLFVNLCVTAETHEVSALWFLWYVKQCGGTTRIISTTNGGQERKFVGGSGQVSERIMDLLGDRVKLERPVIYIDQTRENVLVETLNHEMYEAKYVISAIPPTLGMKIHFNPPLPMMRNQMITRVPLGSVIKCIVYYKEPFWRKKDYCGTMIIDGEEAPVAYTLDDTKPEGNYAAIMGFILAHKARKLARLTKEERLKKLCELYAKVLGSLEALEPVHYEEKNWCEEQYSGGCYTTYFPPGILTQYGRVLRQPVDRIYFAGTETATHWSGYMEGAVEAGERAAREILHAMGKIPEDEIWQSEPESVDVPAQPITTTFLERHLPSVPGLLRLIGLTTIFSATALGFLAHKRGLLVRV
Description: Inhibition of MAOB (unknown origin) using beetle luciferin as substrate by MAO-Glo assay

For experiment [6], the target named is Histone deacetylase 1 (Homo sapiens, UniProt Q13547). Kind of experiment: Inhibition of C-terminal His-tagged and C-terminal FLAG-tagged human HDAC1 expressed in baculovirus expression system using Ac-peptide substrate incubated for 15 mins by fluorescence based assay.
The target in experiment [7] is Histone deacetylase 2 (Homo sapiens, UniProt Q92769).
Description: Inhibition of C-terminal His-tagged full length human HDAC2 expressed in baculovirus expression system using Ac-peptide substrate incubated for 15 mins by fluorescence based assay
The target of experiment [8] is Histone deacetylase 5 (Homo sapiens, UniProt Q9UQL6). Briefly: Inhibition of C-terminal His-tagged human HDAC5 (656-1122 residues) expressed in baculovirus expression system using Ac-peptide substrate incubated for 15 mins by fluorescence based assay.
Experiment [9] has as its system A549. Briefly: cells. The experiment is classed as functional, cell-based. Particulars: Homo sapiens, A549, 72 h.
Description: Antiproliferative activity against human A549 cells incubated for 72 hrs by MTT assay
Experiment [10] has as its target Lysine-specific histone demethylase 1A (Homo sapiens, UniProt O60341).
Description: Inhibition of recombinant LSD1 (157 to 852 amino acids) (unknown origin) expressed in Escherichia coli BL21(DE) using H3K4me2 substrate by amplex red and horseradish peroxidase based fluorescence assay
In experiment [11] the target is T2, Amine oxidase [flavin-containing] A (Homo sapiens, UniProt P21397).
T2 sequence (P21397 whole entry): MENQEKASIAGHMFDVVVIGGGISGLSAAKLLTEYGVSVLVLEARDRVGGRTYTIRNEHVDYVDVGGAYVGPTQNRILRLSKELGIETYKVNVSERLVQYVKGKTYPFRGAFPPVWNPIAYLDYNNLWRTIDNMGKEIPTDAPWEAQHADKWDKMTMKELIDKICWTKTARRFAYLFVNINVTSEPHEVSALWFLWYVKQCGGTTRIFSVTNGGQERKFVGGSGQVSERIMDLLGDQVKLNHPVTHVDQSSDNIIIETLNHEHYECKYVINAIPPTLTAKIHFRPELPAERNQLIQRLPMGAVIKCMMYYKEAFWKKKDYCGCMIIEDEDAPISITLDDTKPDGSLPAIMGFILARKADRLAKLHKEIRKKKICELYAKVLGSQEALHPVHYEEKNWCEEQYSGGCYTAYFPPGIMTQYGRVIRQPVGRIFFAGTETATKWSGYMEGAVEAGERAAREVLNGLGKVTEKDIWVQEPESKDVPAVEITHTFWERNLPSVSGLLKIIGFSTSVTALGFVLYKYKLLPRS
Description: Inhibition of MAOA (unknown origin) using beetle luciferin as substrate by MAO-Glo assay

Chain of Histone deacetylase 5 (Q9UQL6 whole entry, the tested form may be a part): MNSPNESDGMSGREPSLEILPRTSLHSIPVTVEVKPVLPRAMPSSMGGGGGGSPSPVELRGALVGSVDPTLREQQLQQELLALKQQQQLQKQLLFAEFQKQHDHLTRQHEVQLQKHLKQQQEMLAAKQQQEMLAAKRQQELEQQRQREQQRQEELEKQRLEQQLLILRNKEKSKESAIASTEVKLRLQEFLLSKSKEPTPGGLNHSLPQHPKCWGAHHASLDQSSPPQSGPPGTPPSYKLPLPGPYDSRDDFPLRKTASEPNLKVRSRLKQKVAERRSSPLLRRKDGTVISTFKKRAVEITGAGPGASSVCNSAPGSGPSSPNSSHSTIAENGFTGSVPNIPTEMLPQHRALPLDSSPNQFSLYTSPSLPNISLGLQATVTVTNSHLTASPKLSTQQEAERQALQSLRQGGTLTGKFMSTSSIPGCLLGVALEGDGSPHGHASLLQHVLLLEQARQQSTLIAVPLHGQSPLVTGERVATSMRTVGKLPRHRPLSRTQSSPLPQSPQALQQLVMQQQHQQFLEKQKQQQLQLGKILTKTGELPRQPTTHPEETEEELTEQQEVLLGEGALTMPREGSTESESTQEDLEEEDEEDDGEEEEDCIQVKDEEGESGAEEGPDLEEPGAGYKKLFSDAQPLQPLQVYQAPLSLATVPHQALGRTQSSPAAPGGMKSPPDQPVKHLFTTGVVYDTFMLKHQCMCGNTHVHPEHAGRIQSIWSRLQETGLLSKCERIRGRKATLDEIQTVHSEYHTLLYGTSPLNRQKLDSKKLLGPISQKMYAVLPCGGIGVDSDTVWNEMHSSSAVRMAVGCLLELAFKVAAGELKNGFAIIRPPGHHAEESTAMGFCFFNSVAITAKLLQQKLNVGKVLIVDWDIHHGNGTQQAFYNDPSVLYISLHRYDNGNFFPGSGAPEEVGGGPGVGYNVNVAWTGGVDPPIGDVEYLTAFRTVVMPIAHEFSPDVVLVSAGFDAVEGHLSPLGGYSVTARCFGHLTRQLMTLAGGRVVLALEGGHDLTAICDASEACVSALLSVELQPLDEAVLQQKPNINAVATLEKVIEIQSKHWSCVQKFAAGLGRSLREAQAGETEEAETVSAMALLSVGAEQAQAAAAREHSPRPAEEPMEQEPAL
Chain of Histone deacetylase 2 (Q92769 whole entry, the tested form may be a part): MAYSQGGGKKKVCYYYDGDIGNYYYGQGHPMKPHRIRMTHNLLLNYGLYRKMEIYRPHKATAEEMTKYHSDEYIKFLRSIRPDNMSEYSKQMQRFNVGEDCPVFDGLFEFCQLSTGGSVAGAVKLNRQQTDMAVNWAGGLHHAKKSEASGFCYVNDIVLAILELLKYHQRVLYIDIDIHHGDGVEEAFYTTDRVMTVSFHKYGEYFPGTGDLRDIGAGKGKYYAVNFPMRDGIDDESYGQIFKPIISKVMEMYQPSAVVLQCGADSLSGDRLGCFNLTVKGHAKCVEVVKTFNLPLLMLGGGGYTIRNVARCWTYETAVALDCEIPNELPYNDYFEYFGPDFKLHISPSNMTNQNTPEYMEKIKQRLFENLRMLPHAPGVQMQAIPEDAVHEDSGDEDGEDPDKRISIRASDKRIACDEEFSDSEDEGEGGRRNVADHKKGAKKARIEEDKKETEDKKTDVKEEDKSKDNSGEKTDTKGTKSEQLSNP
Chain of Histone deacetylase 1 (Q13547 whole entry): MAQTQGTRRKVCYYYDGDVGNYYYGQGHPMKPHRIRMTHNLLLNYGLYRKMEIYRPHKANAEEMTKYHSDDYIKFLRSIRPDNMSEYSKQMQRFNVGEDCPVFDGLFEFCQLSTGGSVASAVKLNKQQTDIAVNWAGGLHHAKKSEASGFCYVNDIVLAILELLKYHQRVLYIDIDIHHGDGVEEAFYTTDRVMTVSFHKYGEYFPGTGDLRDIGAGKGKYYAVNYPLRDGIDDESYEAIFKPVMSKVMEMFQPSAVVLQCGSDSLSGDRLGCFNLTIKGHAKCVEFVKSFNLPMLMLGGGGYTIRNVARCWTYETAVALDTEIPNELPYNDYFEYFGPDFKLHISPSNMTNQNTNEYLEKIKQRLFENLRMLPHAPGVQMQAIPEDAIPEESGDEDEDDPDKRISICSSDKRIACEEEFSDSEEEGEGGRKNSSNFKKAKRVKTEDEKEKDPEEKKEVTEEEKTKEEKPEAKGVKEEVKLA

`Nc1ccccc1NC(=O)/C=C/c1ccc(CNC2CC2c2ccccc2)cc1` (stereo unspecified): the IC50 in experiment [1] is 11.6 µM; in experiment [2], 26.9 µM; in experiment [3], 22.1 µM; in experiment [4], 13.6 µM; in experiment [5] it was above 100 µM; in experiment [6] it was 0.314 µM. Further, the half-inhibitory concentration (IC50) in experiment [7] was 0.491 µM; in experiment [8] it was “Not Active”; in experiment [9], 3.17 µM; in experiment [10], 3.85 µM; in experiment [11], 36.9 µM.

For the molecule `Nc1ccccc1NC(=O)c1ccc(CNC2CC2c2ccccc2)cc1` (stereo unspecified), the IC50 was 21.7 µM in experiment [1]; above 32 µM in experiment [2]; 19.5 µM in [3]; 21.5 µM in experiment [4]; above 100 µM in [5]; 0.218 µM in [6]. Besides, the IC50 in experiment [7] was 0.413 µM; in experiment [8], “Not Active”; in experiment [9], 5.36 µM; in experiment [10], 7.16 µM; in experiment [11], 50.1 µM.

Turning to `O=C(/C=C/c1ccc(CNC2CC2c2ccccc2)cc1)NO` (stereo unspecified), the IC50 in experiment [1] is 5.62 µM; in experiment [2], 4.03 µM; in experiment [3], 6.24 µM; in experiment [4] it was 2.46 µM; in experiment [5] it was above 100 µM; in experiment [6] it was 0.012 µM. Also, the IC50 in experiment [7] worked out at 0.025 µM; in experiment [8] (read-out: IC50), 2.97 µM; in [9], 1.41 µM; in [10] it was 2.21 µM; in experiment [11], 39.4 µM.

Consider `O=C(NO)c1ccc(CNC2CC2c2ccccc2)cc1` (stereo unspecified), for which the IC50 is 19.8 µM in experiment [1]; 23.3 µM in experiment [2]; 17.3 µM in experiment [3]; 12 µM in experiment [4]; above 100 µM in experiment [5]; 1.44 µM in experiment [6]. The IC50 in [7] is 3.1 µM; in experiment [8], “Not Active”; in experiment [9], 6.75 µM; in [10], 4.09 µM; in experiment [11], 45.8 µM.

`O=C(CCCCCCC(=O)Nc1ccccc1)NO` [VORINOSTAT]: the half-maximal inhibitory concentration (IC50) in experiment [5] and in experiment [11] was above 100 µM throughout.
